Literature values as cited in US8858953B2, “Herbal composition for treating cancer” (priority 2011, dated 2014).

Test system: Epidermal Growth Factor Receptor (EGFR) mutation lung cancer
Details: lung cancer patients with EGFR mutation

For C#Cc1cccc(Nc2ncnc3cc(OCCOC)c(OCCOC)cc23)c1 [Erlotinib], the progression free survival is given as “up to 9 months”.
